Measured values from patent US20110275693A1, “Pharmaceutical Compositions Comprising 2-Oxo-1-Pyrrolidine Derivatives” (UCB PHARMA, S.A., priority 2009, published 2011).

Assays:
rat hippocampal slices [1] = test: Epileptiform responses in hippocampal slices (field potentials, CA3 area); format: cell-based, Sprague-Dawley rats; set-up: rate of spontaneous field bursting in HKLCF: dose or concentration left out as unconfirmed; conditions: for evoked epileptiform responses (PS1 amplitude, repetitive PSs) in HKLCF: CA3 area, fimbrial stimulation, high-K+/low-Ca2+ fluid
Description: The effect of brivaracetam on epileptiform responses induced by high-K+/low-Ca2+ concentrations or by bicuculline was examined in transverse hippocampal slices prepared from Sprague-Dawley rats according to previously reported standard procedures. The epileptiform responses were induced by passing from a normal perfusion of artificial cerebrospinal fluid (ACSF) (K+3 mM; Ca2+2.4 mM) to either high-K+/low-Ca2+ fluid (HKLCF) (K+7.5 mM; Ca2+0.5 mM) or to […] bicuculline methiodide (BMI)-containing ACSF.
Extracellular field potentials (FPs) were recorded in the CA3 area of the slices with 2 M NaCl-filled glass microelectrodes. The evoked FPs were recorded at 10-min intervals in response to fimbrial stimulation with constant current rectangular pulses that elicit a single population spike (PS) of 50-75% of the maximal amplitude when the slice is in ACSF. In the HKLCF model, 2 min of spontaneous activity were also recorded, in the middle of each 10-min interval between the recordings of evoked responses.
Either brivaracetam or levetiracetam was added to the bathing fluid of the slices 20 min before shifting from ACSF to either HKLCF or […] BMI-containing ACSF, and was kept in the perfusion fluid throughout the experiment.

amygdala-kindled rats = test: Fully amygdala-kindled rats; format: in vivo, rat; conditions: for dose significantly reducing the after-discharge duration: 212.3 is the highest brivaracetam dose tested
[2] = test system: patients with post-herpetic neuralgia; conditions: cited from earlier work
epilepsy patients = conditions: adult patients, adjunctive treatment; cited from earlier work
corneally kindled mice = test: Corneal kindling of mice; format: in vivo
GAERS rats = test: Spontaneous SWDs in GAERS rats; format: in vivo, rat
[3] = test system: genetically sound-sensitive male mice; test: Audiogenic seizures in mice; format: in vivo; conditions: audiogenic seizure-susceptible mice; brivaracetam i.p. 30 min, levetiracetam i.p. 60 min pretreatment
Description: Audiogenic seizures in mice: Genetically sound-sensitive male mice (16-28 g; n=10 per group), responding with wild running, clonic and tonic convulsions to an acoustic stimulation, were used. Audiogenic seizures were induced by an acoustic stimulus (90 dB, 10-20 kHz) applied for 30 s. The mice were pretreated with either saline, brivaracetam (i.p., 30 min) or levetiracetam (i.p., 60 min), and the proportion of mice protected against clonic convulsions was used as the end point to assess anticonvulsant activity.

[4] = test system: pentylenetetrazol-induced clonic convulsions in mice; test: Chemically induced seizures in mice (pentylenetetrazol); format: in vivo; conditions: i.p. 30 min before seizure induction, higher ED50 values than audiogenic model
Description: The dose was selected based on dose-effect curves in saline-treated animals as the convulsive dose inducing clonic convulsions of all four extremities in 97% of the animals. Immediately after administration of the chemoconvulsant, the mice were placed individually in small plastic cages (25 13 8 cm) and observed for the presence of clonic convulsions in all four extremities, for 60 min. The occurrence of tonic convulsions (hindlimb extension) and mortality was also recorded during this interval. The proportion of mice protected against clonic convulsions was calculated and used as the end point for anticonvulsant activity.

rat hippocampal slices [5] = conditions: cited from earlier work

SMILES | rate of spontaneous field bursting in HKLCF (rat hippocampal slices [1]) | evoked epileptiform responses (PS1 amplitude, repetitive PSs) in HKLCF (rat hippocampal slices [1]) | dose from which significant suppression in motor-seizure severity is induced (amygdala-kindled rats) [mg/kg] | dose significantly reducing the after-discharge duration (amygdala-kindled rats) [mg/kg] | efficacy in the treatment of post-herpetic neuralgia [2] | efficacy in the treatment of epilepsy (epilepsy patients) | incidence of generalized motor seizures after termination of treatment (corneally kindled mice; continued corneal stimulations, group previously treated with the highest dose) | incidence of generalized motor seizures (corneally kindled mice; pretreatment during corneal kindling of mice) | dose from which spontaneous SWDs are significantly suppressed (GAERS rats) [mg/kg] | dose giving complete inhibition of spontaneous SWDs (GAERS rats; highest dose tested) [mg/kg] | protection against the expression of clonic convulsions [3] | protection against clonic convulsions induced by pentylenetetrazol [4] | epileptiform responses induced by high-K+/low-Ca2+ concentrations in the perfusion fluid and by bicuculline (rat hippocampal slices [5])
CCC[C@@H]1CC(=O)N([C@@H](CC)C(N)=O)C1 [Brivaracetam, (2S)-2-[(4R)-2-oxo-4-propyl-pyrrolidin-1-yl] butanamide] | reduced the rate of this spontaneous bursting | reduced these epileptiform responses | ≥ 21.2 | 212.3 | effective in the treatment of patients with post-herpetic neuralgia | effective in the treatment of epilepsy | persistent reduction in the incidence of generalized motor seizures | significant reduction in the incidence of generalized motor seizures | ≥ 2.1 | 67.9 | protected against the expression of clonic convulsions | protected against clonic convulsions induced by pentylenetetrazol | –
CC[C@@H](C(N)=O)N1CCCC1=O [Levetiracetam] | – | reduced these epileptiform responses | ≥ 170 | > 1700 | – | – | – | – | – | – | protected against the expression of clonic convulsions | – | reduces epileptiform responses
CC[C@@H](C(N)=O)N1C[C@H](C=C(F)F)CC1=O [Seletracetam, (2S)-2-[(4S)-4-(2,2-difluorovinyl)-2-oxo-pyrrolidin-1-yl]butanamide] | – | – | – | – | – | effective in the treatment of epilepsy | – | – | – | – | – | – | –
